One experiment addresses T1, NS3 protease (MBP-NS34a) (Hepatitis C virus genotype 1b, UniProt P26662).
T1 construct: (including 979th to 1710th amino acids); made in house; host or cells: Escherichia coli XL2-Blue
The experiment is described as follows: NS3 protease inhibitory activity test using substrate cleavage reaction as index. The experiment is classed as biochemical, human hepatitis C virus. The protocol:
An NS3 protease cleavage sequence between NS5a and NS5b in the HCV polypeptide was synthesized. The protease inhibitory ability of each of the synthetic peptides was examined according to the method of Kakiuchi et al., in which a synthetic substrate having an amino terminus labeled with a dansyl group was reacted in the presence of a protease and a cleavage degree is measured by reverse phase HPLC (Biochem. Diophys. Res. Commun., 210, 1059, 1995). 1 μg of the purified MBP-NS34a and a reaction mixture (50 mM Tris-HCl (pH 7.5), 30 mM NaCl, 5 MM MgCl2 and 10 mM DTT) containing an evaluation sample prepared at an appropriate concentration were incubated at 25° C. for 15 minutes. To the solution, the synthesized substrate was added at a final concentration of 50 μM, and the mixture was allowed to react at 37° C. for 1 to 3 hours. Subsequently, the enzymatic reaction was stopped by adding a reaction-stopping solution (20% acetonitrile, 0.1% TFA) in a volume 9 times as much as the reaction volume. Then, the cleavaged peak of the synthesized substrate was detected (excited at 340 nm and measured at 510 nm) by a reverse phase column (YMC-AM-302) to calculate the cleavage rate when the inhibitor was added. Further, a value obtained by dividing this cleavage rate when the inhibitor was added by the cleavage rate when no inhibitor was added, was subtracted from 1 and then multiplied by 100. The obtained value was used as the inhibition rate (%) of the evaluated drug. In the above method, the peptide concentration inhibiting 50% of the protease activity (IC50) was calculated (Table 2).

For experiment [1], the target named is T2, MBP-NS34a (Hepatitis C virus genotype 1b, UniProt P26662).
T2 construct: (including 979th to 1710th amino acids); made in house; host or cells: Escherichia coli XL2-Blue
T2 sequence (P26662 979-1710): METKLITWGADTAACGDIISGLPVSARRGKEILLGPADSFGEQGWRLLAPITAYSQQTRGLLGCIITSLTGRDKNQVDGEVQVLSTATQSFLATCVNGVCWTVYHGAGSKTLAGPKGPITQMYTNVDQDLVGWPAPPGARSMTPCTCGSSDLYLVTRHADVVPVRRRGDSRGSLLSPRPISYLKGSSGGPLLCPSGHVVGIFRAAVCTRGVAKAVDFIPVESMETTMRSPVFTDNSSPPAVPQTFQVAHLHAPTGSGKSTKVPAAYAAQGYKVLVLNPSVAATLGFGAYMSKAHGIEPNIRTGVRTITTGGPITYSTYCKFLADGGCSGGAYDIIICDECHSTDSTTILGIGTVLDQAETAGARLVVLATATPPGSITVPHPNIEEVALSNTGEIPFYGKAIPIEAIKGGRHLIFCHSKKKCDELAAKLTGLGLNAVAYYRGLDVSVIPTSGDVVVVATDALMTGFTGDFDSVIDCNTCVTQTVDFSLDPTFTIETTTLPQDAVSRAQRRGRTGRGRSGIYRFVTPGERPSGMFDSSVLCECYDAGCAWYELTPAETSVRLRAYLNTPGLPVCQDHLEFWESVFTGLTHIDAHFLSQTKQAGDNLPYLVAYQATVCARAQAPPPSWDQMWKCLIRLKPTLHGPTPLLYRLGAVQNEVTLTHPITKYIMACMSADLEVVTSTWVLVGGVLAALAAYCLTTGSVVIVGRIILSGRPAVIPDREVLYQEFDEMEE
The experiment is described as follows: Phage ELISA: inhibition of binding of phage peptide and MBP-NS34a by library compounds. More on the design: species or system human hepatitis C virus. Conditions: for effect on binding of various phages to NS34a (figure legend): FIG. 3: clones other than phage peptide K13, FIG. 4: any clone; for inhibition of the binding of the MBP-NS34a and the phage peptide: compound serially diluted, OD 405 nm (FIG. 3, FIG. 4). How it is done:
A binding inhibitor was screened by using the above phage ELISA system. As peptides used for screening, the phage peptides whose protease inhibitory activity was confirmed by using the synthetic peptides were prepared in an amount required for screening according to the method of Example 2 <3>. Each well of a 96-well microtiter plate was coated by using 50 μl of the MBP-NS34a protein solution prepared at 10 μg/ml. The plate was blocked by using 100 μl of 0.5% BSA solution prepared with 10 mM NaHCO3 and rinsed once with 200 μl of TBS buffer for each well. A mixed solution of a compound in a chemical library (synthesized in our company) diluted to an appropriate concentration and each phage prepared as described above was prepared, and the mixture was added to each well coated with the MBP-NS34a protein in an amount of 100 μl and incubated overnight at 4° C. Each well was washed with 200 μl of TBS buffer four times. Then, 50 μl of horseradish peroxidase (HRP)-conjugated sheep anti-M13 phage diluted 2000 times with 5% skim milk was introduced into each well and incubated at room temperature for 1 hour.
Each well was washed with 200 μl of TBS containing 0.5% Tween-20, five times. Then, 100 μl of ABTS solution was added thereto and further incubated at room temperature. The optical density at 405 nm was measured by using a 96-well plate reader (BIO-RAD). There was selected Compound HCP1271 (Compound 5 described in Japanese Patent Laid-Open (KOKAI) No. 2000-7645), in the presence of which the optical density by binding of the MBP-NS34a and the phage peptide was lower than the optical density observed in the absence of the compound. Further, this inhibitory compound was serially diluted and its influence on the binding of 5 kinds of other phage peptides, which inhibited the NS3 protease activity, was similarly determined by the phage ELISA method. […] Further, since a compound HCP1231 similar to HCP1271, was retrieved by the search of the chemical library, its NS3 protease activity inhibitory ability and influence on the binding of the phage peptide and the NS3 protease were examined. […] That is, it was shown that the compound obtained from screening of the inhibitor for binding of the phage peptide and the protease protein could inhibit the protease activity very well.
Background: In an ELISA, binding on a coated surface is turned into a signal by an enzyme label.

For experiment [2], the target named is T2, MBP-NS34a. The experiment in a line: Phage ELISA: inhibition of binding of phage peptide and MBP-NS34a by NS4a peptide 4A18-40. Particulars: 4A18-40 peptide in 10-fold and 20-fold molar excess (FIG. 2). More on the design: species or system human hepatitis C virus. The source says:
A possibility that an action site of each phage peptide clone obtained as described above and that of the NS4a peptide derived from virus known to be activated by the binding to the NS3 protein were identical or overlapped was examined. A partial peptide of the NS4a peptide composed of the 18th to 40th residues from the amino terminus (referred to as 4A18-40 peptide) is known as a minimal region required to enhance the NS3 protease activity (Tanji et al., J. Virol., 69, 4017-4026, 1995). Accordingly, an influence on the binding of each phage peptide and the MBP-NS34a protein was analyzed by the phage ELISA method using a chemically synthesized 4A18-40 peptide ([…], SEQ ID NO; 19). 10 μg/ml of the MBP-NS34a protein to which the 4A18-40 peptide was added in an amount of 10 or 20 times in excess in a molar ratio was immobilized on each well of a 96-well microtiter plate. The plate was blocked by using 100 μl of 0.5% BSA solution prepared with 10 mM NaHCO3, and rinsed once with 200 μl of TBS buffer. […]
Each well was washed with 200 μl of TBS containing 0.5% Tween 20 five times. […] The optical density at 405 nm was measured by a 96-well plate reader (BIO-RAD). The optical density due to binding of the MBP-NS34a and the phage peptide observed in the presence of the NS4a peptide was measured.

Where two headings read alike, the source gives them in different places. Ends that are not written are not given here.

T1 sequence (P26662 979-1710): as above

With `CCCCCCNC(=O)c1cc(Cl)ccc1NS(=O)(=O)c1ccc(Cl)cc1` [HCP1231], at NS3 protease (MBP-NS34a), the “NS3 protease activity inhibitory ability (in words)” value is recorded as “very weak protease activity inhibitory activity”. In addition, at MBP-NS34a [1], the “effect on binding of various phages to NS34a (figure legend)” value is listed as “Binding of any clone was not inhibited”; the “inhibition of the binding of the MBP-NS34a and the phage peptide” value is recorded as “scarcely inhibited the binding”.
As to “LTTGSVVIVGRIILSGRPAVVPD [4A18-40 peptide]”, the entries for the “inhibition of binding of phage clone K13 to the MBP-NS34a protein” value with MBP-NS34a [2] and in the experiment with MBP-NS34a [2] (listed as NS4a peptide) were “increasingly inhibited” and “inhibited the binding in a concentration-dependent manner”, respectively.
A word on the IC50: it is the concentration at which inhibition is half-maximal. At NS3 protease (MBP-NS34a), IWHFSFMWI [Clone K1, IWHFSFMWI] displayed an IC50 of 15 µM.
Regarding `O=C(Nc1ccc(Oc2c(Cl)cc(Cl)cc2Cl)cc1)c1cc(Cl)ccc1NS(=O)(=O)c1ccc2ccccc2c1` [HCP1271], at NS3 protease (MBP-NS34a) (method of Example 3 <1>, read-out: NS3 protease activity IC50 value), the IC50 was determined as 2.2 µM. In addition, at MBP-NS34a [1], the “effect on binding of various phages to NS34a (figure legend)” value is “inhibited in a concentration-dependent manner”; the “inhibition of the binding of the MBP-NS34a and the phage peptide” value is reported as “concentration-dependently inhibited the binding”.
For WVFFWLSRP [Clone J95, WVFFWLSRP], 15 µM corresponded to half-maximal inhibition at NS3 protease (MBP-NS34a) (IC50).

For the origin of these results see patent US20050266498A1, “Method for screening biomolecule activity regulator” (priority 1999, published 2005).
